Results as given in patent publication US11702404B2, “GLP-1R modulating compounds” (priority 2019, dated 2023).
Like-named read-outs stand apart in the source and are kept apart here.

Columns and labels:
[1] = Microsomal stability, human liver microsomes (predicted hepatic clearance); details: predicted from in vitro microsomal stability data
GLP-1R = GLP-1R (Homo sapiens, UniProt P43220); test: GLP-1R activation: cAMP increase in CHO cells stably expressing GLP-1R; assay type: cell-based; details: read-out: EC50
[2] = cAMP increase, CHO cells stably expressing GLP-1R, 10 point dose response, 30 minutes incubation

Chain of GLP-1R (P43220 24-463): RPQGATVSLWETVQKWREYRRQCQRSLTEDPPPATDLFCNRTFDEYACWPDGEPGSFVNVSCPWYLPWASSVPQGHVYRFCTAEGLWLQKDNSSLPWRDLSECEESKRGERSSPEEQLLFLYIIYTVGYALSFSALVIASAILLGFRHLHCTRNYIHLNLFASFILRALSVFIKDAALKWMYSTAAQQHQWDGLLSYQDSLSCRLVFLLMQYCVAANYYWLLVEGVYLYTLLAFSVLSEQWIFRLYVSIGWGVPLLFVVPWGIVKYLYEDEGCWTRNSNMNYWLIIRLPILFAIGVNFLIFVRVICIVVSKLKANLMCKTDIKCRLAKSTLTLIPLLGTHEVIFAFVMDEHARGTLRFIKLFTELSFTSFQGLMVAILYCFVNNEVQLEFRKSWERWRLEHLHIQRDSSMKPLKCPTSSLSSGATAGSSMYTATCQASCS

Which “Predicted Hepatic Clearance (Pred. Cl.)” value [1] does the source give for `CC1(Cn2c(Cc3ccc(-c4cccc(OCc5ccc(C#N)cc5F)n4)cc3F)nc3ccc(C(=O)NS(=O)(=O)C4CC4)cc32)CC1` [Example 50, 2-(4-(6-((4-Cyano-2-fluorobenzyl)oxy)pyridin-2-yl)-2-fluorobenzyl)-N-(cyclopropylsulfonyl)-1-((1-methylcyclopropyl)methyl)-1H-benzo[d]imidazole-6-carboxamide] here?
The value was under 1.83 mL/min/kg.

And the EC50 (GLP-1R; [2])?
Its EC50 is 19 nM.

What does the source list for `O=C(O)c1cc(F)c2nc(Cc3cc(F)c(-c4nc(OCc5ccc(C(F)F)cc5F)ccc4F)cc3F)n(C[C@@H]3CCO3)c2c1` [Example 769]?
Predicted Hepatic Clearance (Pred. Cl.) [1]: 3.67 mL/min/kg; EC50 (GLP-1R; [2]): 0.03 nM

For `N#Cc1cc(F)c(COc2cccc(-c3cc(F)c(Cc4nc5c(F)cc(C(=O)O)cc5n4C[C@@H]4CCO4)cc3F)n2)cc1F` [Example 796], which “Predicted Hepatic Clearance (Pred. Cl.)” value [1] is on record?
Its value is 1.83 mL/min/kg.

What about the EC50 (GLP-1R; [2]) of the same compound?
The EC50 was 0.03 nM.

With `COCCn1c(Cc2ccc(-c3cccc(OCc4ccc(C#N)cc4F)n3)cc2-c2cc[nH]n2)nc2ccc(C(=O)O)cc21` [Example 260, 2-(4-(6-((4-cyano-2-fluorobenzyl)oxy)pyridin-2-yl)-2-(1H-pyrazol-3-yl)benzyl)-1-(2-methoxyethyl)-1H-benzo[d]imidazole-6-carboxylic acid] as the compound, how does the “Predicted Hepatic Clearance (Pred. Cl.)” value [1] read?
Its value is 10.8 mL/min/kg.

What about the EC50 (GLP-1R; [2]) of the same compound?
Its EC50 is 113 nM.

Which “Predicted Hepatic Clearance (Pred. Cl.)” value [1] does the source give for `N#Cc1ccc(COc2cccc(-c3ccc(Cc4nc5ccc(C(=O)O)cc5n4CC4(CO)CC4)c(F)c3)n2)c(F)c1` [Example 375, 2-(4-(6-((4-cyano-2-fluorobenzyl)oxy)pyridin-2-yl)-2-fluorobenzyl)-1-((1-(hydroxymethyl)cyclopropyl)methyl)-1H-benzo[d]imidazole-6-carboxylic acid] here?
Its value is 4.25 mL/min/kg.

What about the EC50 (GLP-1R; [2]) of the same compound?
Its EC50 is 5.46 nM.

With `N#Cc1ccc(COc2cccc(-c3cc(F)c(Cc4nc5c(F)cc(C(=O)O)cc5n4C[C@@H]4CCO4)cc3F)n2)cn1` [Example 659] as the compound, how does the “Predicted Hepatic Clearance (Pred. Cl.)” value [1] read?
The value was 3.5 mL/min/kg.

And the EC50 (GLP-1R; [2])?
Its EC50 is 0.17 nM.

Which results are given for `COC(CN)Cn1c(Cc2ccc(-c3cccc(OCc4ccc(C#N)cc4F)n3)cc2F)nc2ccc(C(=O)O)cc21` (single isomer, unassigned) [Example 339, 1-(3-amino-2-methoxypropyl)-2-(4-(6-((4-cyano-2-fluorobenzyl)oxy)pyridin-2-yl)-2-fluorobenzyl)-1H-benzo[d]imidazole-6-carboxylic acid]?
Predicted Hepatic Clearance (Pred. Cl.) [1]: <1.83 mL/min/kg; EC50 (GLP-1R; [2]): 566 nM

With `COCCn1c(Cc2ccc(-c3cccc(OCc4cc(C(C)C)ccc4F)n3)cc2F)nc2ccc(C(=O)O)cc21` [Example 141, 2-(2-fluoro-4-(6-((2-fluoro-5-isopropylbenzyl)oxy)pyridin-2-yl)benzyl)-1-(2-methoxyethyl)-1H-benzo[d]imidazole-6-carboxylic acid] as the compound, how does the “Predicted Hepatic Clearance (Pred. Cl.)” value [1] read?
Its value is 5.5 mL/min/kg.

And the EC50 (GLP-1R; [2])?
The EC50 was 80.3 nM.

For `N#Cc1ccc(COc2cccc(-c3cc(F)c(Cc4nc5ccc(C(=O)O)cc5n4CC45CC(CO4)C5)cc3F)n2)c(F)c1` [Example 898, 1-((2-oxabicyclo[2.1.1]hexan-1-yl)methyl)-2-(4-(6-((4-cyano-2-fluorobenzyl)oxy)pyridin-2-yl)-2,5-difluorobenzyl)-1H-benzo[d]imidazole-6-carboxylic acid], which “Predicted Hepatic Clearance (Pred. Cl.)” value [1] is on record?
The value was 9.67 mL/min/kg.

And the EC50 (GLP-1R; [2])?
Its EC50 is 1.5 nM.

What does the source list for `COCCn1c(Cc2ccc(-c3cccc(OCc4ccc(CC#N)cc4)n3)cc2F)nc2ccc(C(=O)O)cc21` [Example 229, 2-(4-(6-((4-(cyanomethyl)benzyl)oxy)pyridin-2-yl)-2-fluorobenzyl)-1-(2-methoxyethyl)-1H-benzo[d]imidazole-6-carboxylic acid]?
Predicted Hepatic Clearance (Pred. Cl.) [1]: 8.67 mL/min/kg; EC50 (GLP-1R; [2]): 35.4 nM

Which “Predicted Hepatic Clearance (Pred. Cl.)” value [1] does the source give for `COCCn1c(Cc2cc(F)c(-c3cccc(OCc4cc(C#N)cs4)n3)cc2F)nc2ccc(C(=O)O)cc21` [Example 804] here?
The value was 11.5 mL/min/kg.

What about the EC50 (GLP-1R; [2]) of the same compound?
The EC50 was 43.6 nM.

With `Cn1ccnc1Cn1c(Cc2ccc(-c3cccc(OCc4ccc(C#N)cc4F)n3)cc2F)nc2ccc(C(=O)O)cc21` [Example 607] as the compound, how does the “Predicted Hepatic Clearance (Pred. Cl.)” value [1] read?
The value was 3 mL/min/kg.

What about the EC50 (GLP-1R; [2]) of the same compound?
The EC50 was 108 nM.

For `COCCn1c(Cc2ccc(-c3cccc(OCc4ccc(C#N)cc4F)n3)cc2Br)nc2ccc(C(=O)O)cc21` [Example 239, 2-(2-bromo-4-(6-((4-cyano-2-fluorobenzyl)oxy)pyridin-2-yl)benzyl)-1-(2-methoxyethyl)-1H-benzo[d]imidazole-6-carboxylic], which “Predicted Hepatic Clearance (Pred. Cl.)” value [1] is on record?
The value was under 1.83 mL/min/kg.

And the EC50 (GLP-1R; [2])?
Its EC50 is 7.49 nM.

What does the source list for `COc1cc(C#N)ccc1COc1nccc(-c2cc(F)c(Cc3nc4c(F)cc(C(=O)O)cc4n3C[C@@H]3CCO3)cc2F)n1` [Example 398, (S)-2-(4-(2-((4-cyano-2-methoxybenzyl)oxy)pyrimidin-4-yl)-2,5-difluorobenzyl)-4-fluoro-1-(oxetan-2-ylmethyl)-1H-benzo[d]imidazole-6-carboxylic acid]?
Predicted Hepatic Clearance (Pred. Cl.) [1]: 10.2 mL/min/kg; EC50 (GLP-1R; [2]): 0.1 nM

With `O=C(O)c1ccc2nc(Cc3ccc(-c4cccc(OCc5ccc(C(F)(F)F)cc5F)n4)cc3F)n(C[C@@H]3CCO3)c2c1` [Example 667] as the compound, how does the “Predicted Hepatic Clearance (Pred. Cl.)” value [1] read?
The value was 6 mL/min/kg.

And the EC50 (GLP-1R; [2])?
Its EC50 is 0.1 nM.

Which results are given for `N#Cc1ccc(COc2cccc(-c3cc(F)c(Cc4nc5ccc(C(=O)O)cc5n4CCOc4ccccc4)cc3F)n2)c(F)c1` [Example 830]?
Predicted Hepatic Clearance (Pred. Cl.) [1]: 2.5 mL/min/kg; EC50 (GLP-1R; [2]): 448 nM

For `COCCn1c(Cc2ccc(-c3cccc(OCc4cccc(C(C)C)c4F)n3)cc2F)nc2ccc(C(=O)O)cc21` [Example 158, 2-(2-fluoro-4-(6-((2-fluoro-3-isopropylbenzyl)oxy)pyridin-2-yl)benzyl)-1-(2-methoxyethyl)-1H-benzo[d]imidazole-6-carboxylic acid], which “Predicted Hepatic Clearance (Pred. Cl.)” value [1] is on record?
The value was 3.83 mL/min/kg.

What about the EC50 (GLP-1R; [2]) of the same compound?
The EC50 was 37.1 nM.

Which results are given for `CC(=O)N1C[C@H](O)C[C@@H]1Cn1c(Cc2cc(F)c(-c3cccc(OCc4ccc(C#N)cc4F)n3)cc2F)nc2ccc(C(=O)O)cc21` [Example 848]?
Predicted Hepatic Clearance (Pred. Cl.) [1]: 2.83 mL/min/kg; EC50 (GLP-1R; [2]): 4.08 nM

What does the source list for `CO[C@H]1C[C@H](n2c(Cc3cc(F)c(-c4cccc(OCc5ccc(C#N)cc5F)n4)cc3F)nc3ccc(C(=O)O)cc32)C1` [Example 567, 2-(4-(6-((4-cyano-2-fluorobenzyl)oxy)pyridin-2-yl)-2,5-difluorobenzyl)-1-((1r,3r)-3-methoxycyclobutyl)-1H-benzo[d]imidazole-6-carboxylic acid]?
Predicted Hepatic Clearance (Pred. Cl.) [1]: 7.67 mL/min/kg; EC50 (GLP-1R; [2]): 1130 nM

For `O=C(O)c1cc(F)c2nc(Cc3cc(F)c(-c4nc(OCc5ccc(C(F)(F)F)cc5F)ncc4F)cc3F)n(C[C@@H]3CCO3)c2c1` [Example 884], which “Predicted Hepatic Clearance (Pred. Cl.)” value [1] is on record?
The value was 3.17 mL/min/kg.

And the EC50 (GLP-1R; [2])?
Its EC50 is 0.19 nM.

Which “Predicted Hepatic Clearance (Pred. Cl.)” value [1] does the source give for `O=C(O)c1cc(F)c2nc(Cc3ccc(-c4ccc(F)c(OCc5ccc(C(F)F)cc5F)n4)cc3F)n(C[C@@H]3CCO3)c2c1` [Example 774] here?
Its value is 2.08 mL/min/kg.

And the EC50 (GLP-1R; [2])?
The EC50 was 0.06 nM.

Which “Predicted Hepatic Clearance (Pred. Cl.)” value [1] does the source give for `COCCn1c(Cc2ccc(-c3ccnc(OCc4ccc(C#N)cc4F)n3)cc2F)nc2ccc(C(=O)O)cc21` [Example 83, 2-(4-(2-((4-cyano-2-fluorobenzyl)oxy)pyrimidin-4-yl)-2-fluorobenzyl)-1-(2-methoxyethyl)-1H-benzo[d]imidazole-6-carboxylic acid] here?
The value was under 1.83 mL/min/kg.

And the EC50 (GLP-1R; [2])?
The EC50 was 29.3 nM.

Which results are given for `COCCn1c(Cc2cc(Cl)c(-c3cccc(OCc4ccc(C#N)cc4F)n3)cc2F)nc2ccc(C(=O)O)cc21` [Example 314, 2-(5-chloro-4-(6-((4-cyano-2-fluorobenzyl)oxy)pyridin-2-yl)-2-fluorobenzyl)-1-(2-methoxyethyl)-1H-benzo[d]imidazole-6-carboxylic acid]?
Predicted Hepatic Clearance (Pred. Cl.) [1]: 5 mL/min/kg; EC50 (GLP-1R; [2]): 12.5 nM

For `N#Cc1ccc(COc2cccc(-c3ccc(Cc4nc5cc(C(=O)O)ccc5n4CC4(CF)CC4)c(F)c3)n2)c(F)c1` [Example 552, 2-(4-(6-((4-Cyano-2-fluorobenzyl)oxy)pyridin-2-yl)-2-fluorobenzyl)-1-((1-(fluoromethyl)cyclopropyl)methyl)-1H-benzo[d]imidazole-5-carboxylic acid], which “Predicted Hepatic Clearance (Pred. Cl.)” value [1] is on record?
Its value is under 1.83 mL/min/kg.

What about the EC50 (GLP-1R; [2]) of the same compound?
Its EC50 is 18.1 nM.

Which “Predicted Hepatic Clearance (Pred. Cl.)” value [1] does the source give for `N#Cc1ccc(COc2cccc(-c3cc(F)c(Cc4nc5ccc(C(=O)O)cc5n4C[C@H]4COCCO4)cc3F)n2)c(F)c1` [Example 641] here?
Its value is 2.83 mL/min/kg.

What about the EC50 (GLP-1R; [2]) of the same compound?
The EC50 was 65.9 nM.

For `N#Cc1ccc(COc2cccc(-c3cc(F)c(Cc4nc5ccc(C(=O)O)cc5n4[C@@H]4CCC(F)(F)C4)cc3F)n2)c(F)c1` [Example 699], which “Predicted Hepatic Clearance (Pred. Cl.)” value [1] is on record?
The value was 4.67 mL/min/kg.

And the EC50 (GLP-1R; [2])?
The EC50 was 83.9 nM.

What does the source list for `O=C(O)c1ccc2nc(Cc3ccc(-c4ccc(F)c(OCc5ccc(Cl)cc5F)c4)cc3F)n(CCO)c2c1` [Example 476, 2-[[4-[3-[(4-chloro-2-fluoro-phenyl)methoxy]-4-fluoro-phenyl]-2-fluoro-phenyl]methyl]-3-(2-hydroxyethyl)benzimidazole-5-carboxylic acid]?
Predicted Hepatic Clearance (Pred. Cl.) [1]: 2.17 mL/min/kg; EC50 (GLP-1R; [2]): 366 nM

Which results are given for `COC(=O)N1CCC[C@@H]1Cn1c(Cc2cc(F)c(-c3cccc(OCc4ccc(C#N)cc4F)n3)cc2F)nc2ccc(C(=O)O)cc21` [Example 589, (R)-2-(4-(6-((4-cyano-2-fluorobenzyl)oxy)pyridin-2-yl)-2,5-difluorobenzyl)-1-((1-(methoxycarbonyl)pyrrolidin-2-yl)methyl)-1H-benzo[d]imidazole-6-carboxylic acid]?
Predicted Hepatic Clearance (Pred. Cl.) [1]: 8.17 mL/min/kg; EC50 (GLP-1R): 5.46 nM

Which “Predicted Hepatic Clearance (Pred. Cl.)” value [1] does the source give for `COCCn1c(Cc2cc(F)c(-c3ccc(F)c(OCc4ccc(C(F)F)cc4F)n3)cc2F)nc2ccc(C(=O)O)cc21` [Example 752] here?
Its value is 1.83 mL/min/kg.

What about the EC50 (GLP-1R; [2]) of the same compound?
Its EC50 is 0.51 nM.

With `N#Cc1cc(F)c(COc2nccc(-c3cc(F)c(Cc4nc5ccc(C(=O)O)cc5n4C[C@@H]4CCO4)cc3F)n2)cc1F` [Example 786] as the compound, how does the “Predicted Hepatic Clearance (Pred. Cl.)” value [1] read?
Its value is 1.83 mL/min/kg.

And the EC50 (GLP-1R; [2])?
Its EC50 is 0.22 nM.

What does the source list for `COCCn1c(Cc2cc(F)c(-c3cccc(OCc4ccc(C(F)(F)F)cc4F)n3)cc2F)nc2ccc(C(=O)O)cc21` [Example 557, 2-(2,5-difluoro-4-(6-((2-fluoro-4-(trifluoromethyl)benzyl)oxy)pyridin-2-yl)benzyl)-1-(2-methoxyethyl)-1H-benzo[d]imidazole-6-carboxylic acid]?
Predicted Hepatic Clearance (Pred. Cl.) [1]: 2.17 mL/min/kg; EC50 (GLP-1R; [2]): 0.47 nM
